This note sets out measurements from article PMC10143968, “Chamigrane-Type Sesquiterpenes from Laurencia dendroidea as Lead Compounds against Naegleria fowleri” (Marine Drugs, 2023).

Read-outs that look alike come from different tables or passages of the source. A value given as a limit tells only on which side of the number the result lay.

Data set [1] is described as follows: In vitro cytotoxicity (alamarBlue). In kind it is cell-based, murine. The note with it: mouse. The procedure: (§1) The cytotoxicity assays were carried out in a murine macrophages cell line (ATCC TIB-67). The cells were incubated in Dulbecco’s Modified Eagle’s medium (GIBCO, Thermo Fisher Scientific, Madrid, Spain) (DMEM, w/v) supplemented with 10% (v/v) fetal bovine serum (FBS) and 10 µg/mL of gentamicin (Sigma-Aldrich, Madrid, Spain) at 37 °C in a 5% of CO2 atmosphere. The in vitro cytotoxicity of the compounds was determined following the alamarBlue ™ protocol mentioned in the previous section. Murine macrophages were incubated with serial dilutions of the evaluated molecules for 24 h at 37 °C and in presence of 5% of CO2. Finally, the 50% cytotoxic concentration (CC50) was determined after reading the fluorescence. The in vitro IC50, IC90 and CC50 were determined by a non-linear regression analysis with a 95% of confidence limit using the Graphpad Prism version 9.0 (GraphPad Software; CA; USA). Three independent experiments were performed to obtain each data, which is expressed as mean ± standard deviation (SD).
(The colour change of resazurin is a common sign of viable cells or microbes.)

Data set [2] relates to N. fowleri ATCC 30215™. Description: In vitro activity against Naegleria fowleri trophozoites (alamarBlue), ATCC 30215 strain. In kind it is cell-based. The conditions noted are these: 37 °C, read-out: 50% inhibitory concentration (IC50) against N. fowleri ATCC 30215™. The procedure: (§2) The in vitro experiments were carried out using two different Naegleria fowleri type strains, ATCC 30808™ and ATCC 30215™. The cells were grown in axenic conditions as previously described in other works of our group. The strains were cultured in a level 3 biological security facility at the Instituto Universitario de Enfermedades Tropicales y Salud Pública de Canarias, Universidad de La Laguna, Spain.
(§3) An alamarBlue™-based colorimetric assay was used to determine the in vitro activity of the chamigrane-type sesquiterpenes. Briefly, a known concentration of the trophozoites (2 × 10^5 cells/mL) was incubated with serial dilutions of the compounds. After, the alamarBlue™ reagent was added and the plate was placed at 37 °C for 48 h. Finally, the fluorescence was read and a non-linear regression analysis with a 95% confidence limit, in order to reckon the 50% and 90% inhibitory concentration (IC50 and IC90), was performed.
(§4) The in vitro IC50, IC90 and CC50 were determined by a non-linear regression analysis with a 95% of confidence limit using the Graphpad Prism version 9.0 (GraphPad Software; CA; USA). Three independent experiments were performed to obtain each data, which is expressed as mean ± standard deviation (SD).

For data set [3], the system named is N. fowleri ATCC 30808™. In words: In vitro activity against Naegleria fowleri trophozoites (alamarBlue), ATCC 30808 strain. Type of data set: cell-based. The conditions noted are these: for IC50: trophozoites, alamarBlue, 48 h, 37 °C, read-out: 50% inhibitory concentration (IC50) against N. fowleri ATCC 30808™. The procedure: as §2, §3, §4
The test system of data set [4] is Naegleria fowleri ATCC 30808™ trophozoites. In words: Reactive oxygen species production (CellROX Deep Red). In kind it is cell-based. The conditions noted are these: IC90 (2.45 µM), 24 h. The procedure:
(§5) For the determination of the type of cell death that induces (+)-elatol (1), different commercial kits were used. […] Next, the reagents corresponding to each kit were added, allowing the appearance of programmed cell death (PCD) processes in the cells to be observed. Moreover, the percentage of stained cells was determined using the EVOS™ M5000 Software (Invitrogen by Thermo Fisher Scientific). All experiments were performed in triplicate and five different images (×40) were processed each time.
To determine the oxidative damage, the CellROX Deep Red fluorescent assay (Thermo Fisher Scientific) was used. […] These reagents produce red fluorescence with maximum absorption/emission peaks of ~644/665 nm when facing the reactive oxygen species (ROS) in the cytoplasm.
(§6) The percentage of stained cells determination in the PCD assays was calculated using the EVOS™ M5000 Software (Invitrogen by Thermo Fisher Scientific). […] The bar graph of the mitochondrial membrane potential evaluation illustrates the mean fluorescence and SD emitted by the aggregate and monomer forms of the JC-1 stain. […] Moreover, in all the PCD assays, a one-way analysis of variance (ANOVA) was assessed to study the differences between the treated and negative control trophozoites. ** p < 0.01; *** p < 0.001; **** p < 0.0001 significant differences.

Data set [5] relates to Naegleria fowleri cysts (ATCC 30808™). Description: In vitro cysticidal activity (alamarBlue fluorometric assay). The conditions noted are these: ATCC30808, ATCC 30808™ cysts, 24 h incubation then 72 h with alamarBlue, read-out: IC50 against N. fowleri cysts (cysticidal activity). In kind it is cell-based. The procedure:
For the in vitro cysticidal activity assays, the Naegleria fowleri ATCC 30808™ strain was used. Cysts were obtained transferring the bactocasitone grown trophozoites to the MYAS medium and keeping them for ten days in slight agitation. The in vitro activity of the compounds against the Naegleria fowleri cyst was determined using an alamarBlue™-based fluorometric assay as previously described. Mature cysts were incubated with serial dilutions of the evaluated compound for 24 h at 37 °C. After that, the medium was removed and fresh bactocasitone was added. Later, the alamarBlue® reagent was placed and the plates were incubated for 72 additional hours at 37 °C. Finally, the EnSpire Multimode Plate Reader (PerkinElmer, Madrid, Spain) was used to read the fluorescence and calculate the IC50 as described in Section 4.3. The in vitro IC50, IC90 and CC50 were determined by a non-linear regression analysis with a 95% of confidence limit using the Graphpad Prism version 9.0 (GraphPad Software; CA; USA). Three independent experiments were performed to obtain each data, which is expressed as mean ± standard deviation (SD).

Data set [6] deals with Murine Macrophages J774.A1. In words: In vitro cytotoxicity (alamarBlue). In kind it is cell-based. The conditions noted are these: mouse, 24 h. The procedure:
as §1

In data set [7] the test system is Naegleria fowleri ATCC 30808™ trophozoites. In words: ATP production (CellTiter-Glo). Type of data set: cell-based. The note with it: IC90 (2.45 µM), 24 h. The procedure:
as §5
Afterwards, to validate the mitochondrial damage, the levels of ATP produced in the amoebae treated with the IC90 of the compound were analyzed using the CellTiter-Glo® Luminescent Cell Viability Assay reagent (Promega Biotech Ibérica S.L, Madrid, Spain) following manufacturer’s instructions.
In general terms: ATP-based viability assays read luminescence as a measure of living cells.

The test system is the same in data set [8]. Description: Mitochondrial membrane potential (JC-1). Type of data set: cell-based. The note with it: IC90 (2.45 µM), 24 h. The procedure:
as §5
For determining mitochondrial damage in treated amoebae, two different assays were performed. Firstly, to measure the collapse of the transmembrane electrochemical gradient, a lipophilic cationic dye called JC-1 (Cayman Chemicals Vitro SA, Madrid, Spain) was used. […] When the membrane potential is high, the fluorophore will be found in the mitochondria in the j-aggregates form emitting red fluorescence at 595 nm. On the other hand, when membrane depolarization occurs, the reagent disperses and remains in its monomeric form showing green fluorescence at 535 nm.
The percentage of stained cells determination in the PCD assays was calculated using the EVOS™ M5000 Software (Invitrogen by Thermo Fisher Scientific). […] The bar graph of the mitochondrial membrane potential evaluation illustrates the mean fluorescence and SD emitted by the aggregate and monomer forms of the JC-1 stain. […]

Data set [9] has as its system Naegleria fowleri (ATCC 30808™) trophozoites. Type of data set: cell-based. The note with it: not told. The procedure: as §5
The permeability of the plasma membrane was assessed with the SYTOX Green® stain. The plasma membrane is impermeable to the dye in healthy conditions. However, when the permeability of the plasma membrane is compromised, the SYTOX Green® enters the cells, binds the DNA and emits an intense green fluorescence at 523 nm wavelength.
as §6

For data set [10], the system named is Naegleria fowleri ATCC 30808™ trophozoites. Description: Chromatin condensation (Hoechst 33342/PI double stain). In kind it is cell-based. The conditions noted are these: IC90 (2.45 µM), 24 h. The procedure: as §5
The condensed chromatin was detected with the double-stain apoptosis detection kit (Hoechst 33342/PI) (Life Technologies, Madrid, Spain). The Hoechst 33342 stain emits blue fluorescence in the presence of condensed chromatin while the Propidium iodide (PI) is able to travel through the membrane of dead cells and emit a red fluorescence.
as §6

Where [11] appears, read: J774.A1 murine macrophage cell line (ATCC TIB-67), alamarBlue, 24 h, 37 °C, read-out: 50% cytotoxic concentration (CC50) against murine macrophages J774.A1.
Setting [12] is: Naegleria fowleri, ATCC30215, 48 h.
Where [13] appears, read: Naegleria fowleri, ATCC30808, 48 h.

A word on the IC90: it is the concentration needed for an effect of 90%. The low end stands for greater potency, the high end for weaker potency.

On to `CCCCCCCCCCCCCCCCOP(=O)([O-])OCC[N+](C)(C)C` [Miltefosine, reference compound], for which, in data set [1] (setting [11]), the CC50 at 24 h worked out at 128 ± 8.85 µM. In addition, the IC50 turned out to be 81.6 ± 7.23 µM in [2] (setting [12]) and 38.7 ± 4.23 µM in [3] (setting [13]).

Regarding `CC1=CC[C@@H](Br)C(C)(C)[C@]12CC[C@](C)(Br)[C@@H](Cl)C2` [(−)-3,10-dibromo-4-chloro-alpha-chamigrane], the IC50 in [3] (setting [13]) was more than 62.7 µM.

As for `C=C1C[C@@H](O)[C@@H](Br)C(C)(C)[C@]12CC[C@@](C)(O)[C@@H](Cl)C2` [(+)-Dendroidiol (7), (−)-dendroidiol], the IC50 in [3] (setting [13]) is more than 71.1 µM.

For `C=C1C[C@H](O)[C@H](Br)C(C)(C)[C@]12CC=C(C)CC2` [(+)-Dechloroelatol (4), (+)-dechloroelatol], the IC50 in [3] (setting [13]) is more than 83.5 µM.

In data set [1] (50% cytotoxic concentration (CC50) against murine macrophages J774.A1), `C=C1CC(O)C(Br)C(C)(C)C12CCC(C)(Cl)C(Br)C2` (single isomer, unassigned; (-)) [(−)-Rogiolol (5), (−)-rogiolol] showed a CC50 at 24 h of 142 ± 17.2 µM. The IC50 is 9.71 ± 0.82 µM in [2] (setting [12]) and 22.5 ± 5.81 µM in data set [3] (setting [13]).

As to `C=C1C[C@@H](O)[C@@H](Br)C(C)(C)[C@]12CC[C@](C)(Br)[C@@H](Cl)C2` [(+)-Obtusol (9), (+)-obtusol], the IC50 in data set [3] (setting [13]) was more than 60.3 µM.

With `C=C1CC(O)C(Br)C(C)(C)C12CCC(C)=C(Cl)C2` (single isomer, unassigned; (+)) [(+)-Elatol (1), (+)-elatol], in [4], the “ROS generation (CellROX Deep Red)” value was “induces the over-generation of ROS”. Besides, the IC50 in data set [5] was 1.14 µM; in [2] (48 h), 1.14 ± 0.09 µM; in data set [3] it was 1.08 ± 0.09 µM. For the same compound, the CC50 in data set [6] stood at 61.5 ± 13 µM. Further, in data set [7], the “reduction of ATP production compared to untreated cells” value is recorded as 82.11%. Also, the “mitochondrial membrane potential (JC-1)” value in data set [8] was “depolymerization of the mitochondrial membrane potential”. Moreover, in data set [9], the “plasma membrane permeability (SYTOX Green fluorescence)” value is “plasma membrane is damaged in treated cells”. Also, the “chromatin condensation (Hoechst 33342 fluorescence)” value in data set [10] was “intense blue fluorescence”. In addition, the “propidium iodide staining (red fluorescence)” value in [10] is “absence of the red fluorescence”. The IC90 in data set [3] (Naegleria fowleri, ATCC30808, ATCC 30808™ strain) came to 2.45 µM.

Take `C=C1C[C@H](O)CC(C)(C)[C@@]12CCC(C)=C(Cl)C2` [(+)-Debromoelatol (3), (+)-debromoelatol]: the IC50 in data set [3] (setting [13]) is more than 98.1 µM.

Consider `C=C1CC(O)C(Br)C(C)(C)C12CCC(C)=C(Cl)C2` (single isomer, unassigned; (-)) [(−)-Elatol (2), (−)-elatol], for which the CC50 in data set [6] was more than 150 µM. Moreover, the IC50 stood at 38 ± 7.61 µM in data set [2] (48 h) and 36.8 ± 8.03 µM in [3]. The “fold less potent than (+)-elatol (1)” value in data set [3] (IC50 ratio against N. fowleri trophozoites) stood at 34 fold.

`C[C@@H]1[C@H](O)[C@@H](C)/C=C/C=C/C=C/C=C/C=C/C=C/C=C/[C@H](O[C@@H]2O[C@H](C)[C@@H](O)[C@H](N)[C@@H]2O)C[C@@H]2O[C@](O)(C[C@@H](O)C[C@@H](O)[C@H](O)CC[C@@H](O)C[C@@H](O)CC(=O)O[C@H]1C)C[C@H](O)[C@H]2C(=O)O` [Amphotericin B, reference compound]: in [1] (setting [11]), the CC50 at 24 h was more than 200 µM. The IC50 in data set [3] (setting [13]) amounted to 0.12 ± 0.03 µM.

On to `C=C1C[C@@H](O)[C@@H](Br)C(C)(C)[C@]12CC[C@@](C)(Cl)[C@H](Br)C2` [(−)-Cartilagineol (8), (−)-cartilagenol], for which the IC50 in data set [3] (setting [13]) is more than 60.3 µM.

As to `C=C1CC[C@@H](Br)C(C)(C)[C@@]12CC[C@@](C)(Br)[C@H](Cl)C2` [(+)-Obtusane (10), (+)-obtusane], in data set [3] (setting [13]), the IC50 is more than 62.7 µM.
